Values joined by “and” are separate entries in the source; they are usually repeats but may differ in a detail not shown here. Equal entries are not always repeated. “Also recorded” adds a separate entry of the source.
Key:
[1] = system: HIV-1 RT mutant resistance test vector A62V+T69SSA+V75I; test: Phenotypic susceptibility assay, site directed RTV A62V+T69SSA+V75I; assay type: cell-based; details: for Average fold reduction in susceptibility: RTV with 62 + 69 + 751 (A62V, T69SSA, V75I), 1 replicate; for effect on susceptibility (words): RTV with A62V+T69SSA+V75I
Protocol: (§1) Resistance tests were carried out with resistance test vectors using two host cell types. Resistance test vector viral particles were produced by a first host cell (the resistance test vector host cell) that was prepared by transfecting a packaging host cell with the resistance test vector and the packaging expression vector. The resistance test vector viral particles were then used to infect a second host cell (the target host cell) in which the expression of the indicator gene is measured.
(§2) The resistance test vectors containing a functional luciferase gene cassette were constructed and host cells were transfected with the resistance test vector DNA. The resistant test vectors contained patient-derived reverse transcriptase and protease sequences that were either susceptible or resistant to the antiretroviral agents, such as nucleoside reverse transcriptase inhibitors, non-nucleoside reverse transcriptase inhibitors and protease inhibitors. The resistance test vector viral particles produced by transfecting the resistance test vector DNA into host cells, either in the presence or absence of protease inhibitors, were used to infect target host cells grown either in the absence of NRTI or NNRTI or In the presence of increasing concentrations of the drug. The amount of luciferase activIty produced in infected target host cells in the presence of drug was compared to the amount of luciferase produced in infected target host cells in the absence of drug. Drug resistance was measured as the amount of drug required to inhibit by 50% the luciferase activity detected in the absence of drug (Inhibitory concentration 50%, IC50). The IC50 values were determined by plotting percent drug inhibition vs. log 10 drug concentration.
(§3) Host cells were seeded in 10-cm-diameter dishes and were transfected several days after plating with resistance test vector plasmid DNA and the envelope expression vector. Transfections were performed using a calcium-phosphate precipitation procedure. The cell culture media containing the DNA precipitate was replaced with fresh medium, from one to 24 hours, after transfection. Cell culture media containing resistance test vector viral particles was harvested one to four days after transfection and was passed through a […] filter before being stored at −80° C. HIV capsid protein (p24) levels in the harvested cell culture media were determined by an EIA method as described by the manufacturer (SIAC; Frederick, Md.). Before infection, target cells (293 and 293/T) were plated in cell culture media. Control infections were performed using cell culture media from mock transfections (no DNA) or transfections containing the resistance test vector plasmid DNA without the envelope expression plasmid. One to three or more days after infectIon the media was removed and cell lysis buffer (Promega) was added to each well. Cell lysates were assayed for luciferase activity (FIG. 3). The inhibitory effect of the drug was determined using the following equation:
(§4) % luciferase inhibition=1−(RLUluc[drug]÷RLUluc)×100
where RLUluc [drug] is the relative light unit of luciferase activity in infected cells in the presence of drug and RLUluc is the Relative Light Unit of luciferase activity in infected cells in the absence of drug. IC50 values were obtained from the sigmoidal curves that were generated from the data by plotting the percent inhibition of luciferase activity vs. the log 10 drug concentration. The drug inhibition curves are shown in (FIG. 3).
Genotypic changes that are observed to correlate with changes in phenotypic patterns of drug susceptibility are evaluated by construction of resistance test vectors containing the specific mutation on a defined, wild-type (drug susceptible) genetic background. Mutations may be incorporated alone and/or in combination with other known drug resistance mutations that are thought to modulate the susceptibility of HIV to a certain drug or class of drugs. […]

[2] = system: HIV-1 RT mutant resistance test vector A62V-T69SSA-L74V-RTV; test: Phenotypic susceptibility assay, site directed RTV A62V-T69SSA-L74V; assay type: cell-based; details: for Average fold reduction in susceptibility: RTV with 62 + 69 + 74V, 1 replicate
Protocol: as §1, §2
as §3, with “Cell lysates were assayed for luciferase activity (FIG. 3).” left out
as §4
where RLUluc [drug] is the relative light unit of luciferase activity in infected cells in the presence of drug and RLUluc is the Relative Light Unit of luciferase activity in infected cells in the absence of drug. IC50 values were obtained from the sigmoidal curves that were generated from the data by plotting the percent inhibition of luciferase activity vs. the log 10 drug concentration. […]

Nc1nc(NC2CC2)c2ncn([C@H]3C=C[C@@H](CO)C3)c2n1 [ABC, abacavir]
Average fold reduction in susceptibility [1]: 2.56 fold

Cc1cn([C@H]2C[C@H](N=[N+]=[N-])[C@@H](CO)O2)c(=O)[nH]c1=O [AZT, zidovudine]
effect on susceptibility (words) ([2]; L74V introduced with A62V+T69SSA): shift of the susceptibility back to wild-type
Average fold reduction in susceptibility [1]: 2 fold and 0.71 fold
effect on susceptibility (words) [1]: completely suppressed the reduced AZT susceptibility; also recorded: completely suppressed the six-fold AZT resistance

Cc1cn([C@H]2C=C[C@@H](CO)O2)c(=O)[nH]c1=O [d4T, stavudine]
Average fold reduction in susceptibility [2]: 1.5 fold and 1.50 fold
Average fold reduction in susceptibility [1]: 1.40 fold
effect on susceptibility (words) [1]: did not reduce d4T susceptibility more than the T69SSA mutation alone

Nc1ccn([C@H]2CC[C@@H](CO)O2)c(=O)n1 [ddC, zalcitabine]
Average fold reduction in susceptibility [2]: 1.8 fold and 1.80 fold
Average fold reduction in susceptibility [1]: 1.89 fold

O=c1[nH]cnc2c1ncn2[C@H]1CC[C@@H](CO)O1 [ddI, didanosine]
Average fold reduction in susceptibility [1]: 1.17 fold
